Results taken from US12279615B2, “Wood preservative and method for producing same” (Koppers Performance Chemicals Inc., priority 2016, dated 2025).

What was measured:
[1] = Particle size of penflufen after milling with 1 mm zirconia; type: physicochemical; settings: milled with 1 mm zirconia
From the text: The attainment of the injectable size, which generally requires both a d50 below 0.5 microns and a d98 less than three times the d50, was a surprising development. […] Milling a milling-resistant organic biocide, such as penflufen, with 1 mm zirconia provided a penflufen product with a d50 of 2 to 3 microns.

[2] = tested on: Coniophora puteana; assay: Laboratory soil-block decay resistance test, AWPA Standard E10-2015, treated southern pine sapwood cubes; type: cell-based; settings: micronized penflufen
Method: (§1) The synergism was determined using a modified method as described by Kull et al. (Applied Microbiology, 1961 (9): 538-541). The modified method is described as below: QA/Qa+QB/Qb=SI • Where: • Qa=concentration of substance A alone which controls a particular decay fungus • Qb=concentration of substance B alone which controls a particular decay fungus • QA=concentration of substance A in the concentration of the A and B mixture at which controls a particular decay fungus • QB=concentration of substance B in the concentration of the A and B mixture at which controls a particular decay fungus • SI=1 means additivity • SI>1 means antagonism • SI<1 means synergism
(§2) Wood cubes measuring 19 mm×19 mm×19 mm were prepared from southern pine sapwood. One set of wood cubes were pressured treated with serial treating solutions containing penflufen fungicide. A second set of wood cubes were pressure treated with treating solutions containing the copper fungicide. A third set of wood cubes were pressure treated with treating solutions containing a mixture of the copper and penflufen. The treated wood samples were exposed to various fungi to conduct a laboratory decay resistance test following protocols as described in American Wood Protection Association Standard E10-2015. Before and after exposure to fungi, the wood samples were weighed to determine the weight percent loss. No weight loss means complete control of the fungal attack.
(§3) Wood cubes measuring 19 mm×19 mm×19 mm were prepared from southern pine sapwood. The wood cubes were pressure treated with treating solutions containing micronized penflufen. The treated wood samples were exposed to various fungi to conduct a laboratory decay resistance test following protocols as described in American Wood Protection Association Standard E10-2015. Before and after exposure to fungi, the wood samples were weighed to determine the weight percent loss.

[3] = tested on: Fibroporia radiculosa; assay: as above; type: cell-based; settings: micronized penflufen
Method: as §1, §2, §3

[4] = tested on: Gloeophyllum trabeum; assay: as above; type: cell-based; settings: micronized penflufen
Method: as §1, §2, §3

[5] = tested on: Postia placenta; assay: as above; type: cell-based; settings: micronized penflufen
Method: as §1, §2, §3

## Cc1nn(C)c(F)c1C(=O)Nc1ccccc1C(C)CC(C)C (stereo not drawn) [Penflufen, penflufen]
[1]
  d50: 2 to 3 microns
[2]; Penflufen Retention 8 g/m^3
  Mean Percent Weigh Loss of Treated Wood Cubes: 1.4%
[2]; Penflufen Retention 12 g/m^3
  Mean Percent Weigh Loss of Treated Wood Cubes: 1.6%
[2]; Penflufen Retention 16 g/m^3
  Mean Percent Weigh Loss of Treated Wood Cubes: 1.6%
[2]; Penflufen Retention 24 g/m^3
  Mean Percent Weigh Loss of Treated Wood Cubes: 1.5%
[2]; Penflufen Retention 32 g/m^3
  Mean Percent Weigh Loss of Treated Wood Cubes: 1.1%
[2]; Penflufen Retention 48 g/m^3
  Mean Percent Weigh Loss of Treated Wood Cubes: 1.4%
[2]; Penflufen Retention 64 g/m^3
  Mean Percent Weigh Loss of Treated Wood Cubes: 2.0%
[2]; Penflufen Retention 80 g/m^3
  Mean Percent Weigh Loss of Treated Wood Cubes: 1.3%
[3]; Penflufen Retention 8 g/m^3
  Mean Percent Weigh Loss of Treated Wood Cubes: 12.0%
[3]; Penflufen Retention 12 g/m^3
  Mean Percent Weigh Loss of Treated Wood Cubes: 10.4%
[3]; Penflufen Retention 16 g/m^3
  Mean Percent Weigh Loss of Treated Wood Cubes: 8.2%
[3]; Penflufen Retention 24 g/m^3
  Mean Percent Weigh Loss of Treated Wood Cubes: 8.2%
[3]; Penflufen Retention 32 g/m^3
  Mean Percent Weigh Loss of Treated Wood Cubes: 5.4%
[3]; Penflufen Retention 48 g/m^3
  Mean Percent Weigh Loss of Treated Wood Cubes: 5.7%
[3]; Penflufen Retention 64 g/m^3
  Mean Percent Weigh Loss of Treated Wood Cubes: 4.4%
[3]; Penflufen Retention 80 g/m^3
  Mean Percent Weigh Loss of Treated Wood Cubes: 3.0%
[4]; Penflufen Retention 8 g/m^3
  Mean Percent Weigh Loss of Treated Wood Cubes: 3.1%
[4]; Penflufen Retention 12 g/m^3
  Mean Percent Weigh Loss of Treated Wood Cubes: 2.9%
[4]; Penflufen Retention 16 g/m^3
  Mean Percent Weigh Loss of Treated Wood Cubes: 3.6%
[4]; Penflufen Retention 24 g/m^3
  Mean Percent Weigh Loss of Treated Wood Cubes: 3.0%
[4]; Penflufen Retention 32 g/m^3
  Mean Percent Weigh Loss of Treated Wood Cubes: 3.5%
[4]; Penflufen Retention 48 g/m^3
  Mean Percent Weigh Loss of Treated Wood Cubes: 3.0%
[4]; Penflufen Retention 64 g/m^3
  Mean Percent Weigh Loss of Treated Wood Cubes: 1.6%
[4]; Penflufen Retention 80 g/m^3
  Mean Percent Weigh Loss of Treated Wood Cubes: 2.0%
[5]; Penflufen Retention 8 g/m^3
  Mean Percent Weigh Loss of Treated Wood Cubes: 3.5%
[5]; Penflufen Retention 12 g/m^3
  Mean Percent Weigh Loss of Treated Wood Cubes: 1.9%
[5]; Penflufen Retention 16 g/m^3
  Mean Percent Weigh Loss of Treated Wood Cubes: 2.1%
[5]; Penflufen Retention 24 g/m^3
  Mean Percent Weigh Loss of Treated Wood Cubes: 1.2%
[5]; Penflufen Retention 32 g/m^3
  Mean Percent Weigh Loss of Treated Wood Cubes: 1.2%
[5]; Penflufen Retention 48 g/m^3
  Mean Percent Weigh Loss of Treated Wood Cubes: 1.1%
[5]; Penflufen Retention 64 g/m^3
  Mean Percent Weigh Loss of Treated Wood Cubes: 1.1%
[5]; Penflufen Retention 80 g/m^3
  Mean Percent Weigh Loss of Treated Wood Cubes: 1.3%
